Source: article PMC4762688 (Journal of nuclear medicine : official publication, Society …, 2015)
“Also recorded” adds a separate entry of the source. Bridge positions count the residues as written; N and C are the ends. Square brackets hold non-standard residues; d marks the D form. Peptide text beside a SMILES is read from it. * marks the point of attachment. X1 = O=C(O)CN1CCN(CC(=O)O)CCN(C(CCC(=O)NCc2ccc(CN*)cc2)C(=O)O)CC1; NODAGA = O=C(O)CN1CCN(CC(=O)O)CCN(C(CCC(=O)*)C(=O)O)CC1; Tyr(3-Cl) = N[C@@H](Cc1ccc(O)c(Cl)c1)C(=O)O; X3 = NCCN(CCN)CCC(=O)NCc1ccc(CN*)cc1; Hyp = O=C(O)[C@@H]1C[C@@H](O)CN1; X2 = NCCN(CCN)CCC(=O)*

What was measured:
[1] = system: thrombus (mural carotid artery thrombosis); experiment: PET / SPECT imaging in rat carotid crush injury model; type: in vivo
[2] = system: thrombus (mural carotid artery thrombosis); experiment: Ex vivo biodistribution; details: crush model, biodistribution at 120 minutes
[3] = Blood clearance / pharmacokinetics from serial blood samples
[4] = biological target: soluble fibrin fragment DD(E) (Homo sapiens, UniProt P02671+P02675+P02679, DEL433-453); type: binding; details: DD(E) assay
[5] = biological target: T1, immobilized fibrin (Homo sapiens, UniProt P02671+P02675+P02679); experiment: Functional fibrin-binding assay: blood plasma incubated with immobilized fibrin; details: blood samples collected after injection
T1 sequence (P02671 36-629 limits assumed): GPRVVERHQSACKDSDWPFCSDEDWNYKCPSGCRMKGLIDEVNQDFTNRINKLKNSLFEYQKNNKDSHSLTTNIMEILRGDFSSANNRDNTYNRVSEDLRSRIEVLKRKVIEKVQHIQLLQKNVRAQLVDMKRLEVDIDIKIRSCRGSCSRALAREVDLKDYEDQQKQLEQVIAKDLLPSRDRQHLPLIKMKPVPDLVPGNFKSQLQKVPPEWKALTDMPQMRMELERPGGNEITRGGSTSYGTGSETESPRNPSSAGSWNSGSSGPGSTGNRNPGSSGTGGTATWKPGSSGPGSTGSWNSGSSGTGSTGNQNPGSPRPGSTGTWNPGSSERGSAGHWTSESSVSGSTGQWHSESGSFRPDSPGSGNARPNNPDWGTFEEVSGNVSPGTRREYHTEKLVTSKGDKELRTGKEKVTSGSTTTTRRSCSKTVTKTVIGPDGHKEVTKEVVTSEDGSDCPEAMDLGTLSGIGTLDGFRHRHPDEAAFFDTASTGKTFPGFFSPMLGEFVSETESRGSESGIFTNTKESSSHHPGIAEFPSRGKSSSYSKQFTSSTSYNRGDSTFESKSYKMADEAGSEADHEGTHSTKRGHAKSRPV
T1 sequence (P02675 45-491 limits assumed): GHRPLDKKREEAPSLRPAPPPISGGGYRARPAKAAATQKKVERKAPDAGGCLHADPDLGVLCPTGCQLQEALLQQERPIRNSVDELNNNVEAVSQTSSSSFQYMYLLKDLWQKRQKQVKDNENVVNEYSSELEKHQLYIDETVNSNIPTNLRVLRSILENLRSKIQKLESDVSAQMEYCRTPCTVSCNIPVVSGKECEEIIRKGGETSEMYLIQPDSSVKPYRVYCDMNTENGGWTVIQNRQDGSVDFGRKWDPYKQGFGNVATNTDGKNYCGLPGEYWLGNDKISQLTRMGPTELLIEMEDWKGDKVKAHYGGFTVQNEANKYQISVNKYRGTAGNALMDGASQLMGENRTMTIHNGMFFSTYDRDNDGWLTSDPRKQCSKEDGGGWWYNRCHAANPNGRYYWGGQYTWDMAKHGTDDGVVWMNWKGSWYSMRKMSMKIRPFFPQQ
T1 sequence (P02679 27-437 isoform P02679-2 limits assumed): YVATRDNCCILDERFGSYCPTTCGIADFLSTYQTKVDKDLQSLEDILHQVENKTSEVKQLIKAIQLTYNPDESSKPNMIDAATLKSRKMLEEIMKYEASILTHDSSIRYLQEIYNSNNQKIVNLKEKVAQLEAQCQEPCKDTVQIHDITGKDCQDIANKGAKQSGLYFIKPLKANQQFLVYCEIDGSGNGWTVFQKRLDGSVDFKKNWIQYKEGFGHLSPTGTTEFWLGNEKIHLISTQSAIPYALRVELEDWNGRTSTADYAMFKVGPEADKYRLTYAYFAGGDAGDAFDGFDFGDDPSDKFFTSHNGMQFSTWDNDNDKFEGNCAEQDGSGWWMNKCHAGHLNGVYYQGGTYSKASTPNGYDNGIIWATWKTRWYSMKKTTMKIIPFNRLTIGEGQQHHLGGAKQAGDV

[6] = system: 125I-labeled thrombus; experiment: Triple-isotope SPECT/PET/CT imaging with 125I-labeled thrombus; type: in vivo, rat; details: ferric chloride model

displacement of the fluorescent probe [4]	Structure (SMILES)	thrombus detection on PET / SPECT images [1]	thrombus uptake [2]	half-life ([3]; male, Sprague-Dawley, rat, in vivo, iv) [min]	clearance of radioactivity from blood ([3]; serial blood draws 0 to 120 minutes p.i.)	fibrin binding of blood samples (plasma incubated with immobilized fibrin) [5]	localization to 125I-labeled thrombus (SPECT/PET) [6]
	CC[C@H](C)[C@H](NC(=O)[C@H](Cc1c[nH]cn1)NC(=O)[C@@H]1CSSC[C@H](NC(=O)[C@H](Cc2c[nH]cn2)NC(=O)[C@H](Cc2ccccc2)NC(=O)CCN(CCN)CCN)C(=O)N2C[C@H](O)C[C@H]2C(=O)N[C@@H](Cc2ccc(O)c(Cl)c2)C(=O)N[C@@H](CC(=O)O)C(=O)N[C@@H](CC(C)C)C(=O)N1)C(=O)N[C@@H](CC(C)C)C(=O)NCc1ccc(CNC(=O)CCN(CCN)CCN)cc1 [^99mTc-FBP16, metal not drawn] (X2-FHC[Hyp][Tyr(3-Cl)]DLCHIL-X3; disulfide 3-8)	ineffective	low target uptake	5.9 ± 16.2	residual radioactivity persisting in the blood even after 120 minutes		
no displacement	CC[C@H](C)[C@H](NC(=O)[C@H](Cc1c[nH]cn1)NC(=O)[C@@H]1CSSC[C@@H](NC(=O)[C@H](Cc2c[nH]cn2)NC(=O)[C@H](Cc2ccccc2)NC(=O)CCC(C(=O)O)N2CCN(CC(=O)O)CCN(CC(=O)O)CC2)C(=O)N2C[C@H](O)C[C@H]2C(=O)N[C@@H](Cc2ccc(O)c(Cl)c2)C(=O)N[C@@H](CC(=O)O)C(=O)N[C@@H](CC(C)C)C(=O)N1)C(=O)N[C@@H](CC(C)C)C(=O)NCc1ccc(CNC(=O)CCC(C(=O)O)N2CCN(CC(=O)O)CCN(CC(=O)O)CC2)cc1 (stereo partly drawn) [^64Cu-D-Cys-FBP8, metal not drawn] ({NODAGA}-FH[dC][Hyp][Tyr(3-Cl)]DLCHIL-X1; disulfide 3-8)	no uptake in the thrombus				does not bind to fibrin; also recorded: significantly lower binding	did not reveal significant uptake at the target site
